Consider one compound from PMC10557740 (bioRxiv, 2023).

For assay [1], the target named is HTR2A-A242S-EGFP-CT (humanized 5-hydroxytryptamine 2A receptor) (Mus musculus, UniProt P35363, A242S). The assay can be described thus: radioligand saturation binding on cortical crude membranes.
The target of assay [2] is 5-hydroxytryptamine 2A receptor (HTR2A) (Mus musculus, UniProt P35363). The format is binding.
5-hydroxytryptamine 2A receptor (HTR2A), sequence (P35363 whole entry): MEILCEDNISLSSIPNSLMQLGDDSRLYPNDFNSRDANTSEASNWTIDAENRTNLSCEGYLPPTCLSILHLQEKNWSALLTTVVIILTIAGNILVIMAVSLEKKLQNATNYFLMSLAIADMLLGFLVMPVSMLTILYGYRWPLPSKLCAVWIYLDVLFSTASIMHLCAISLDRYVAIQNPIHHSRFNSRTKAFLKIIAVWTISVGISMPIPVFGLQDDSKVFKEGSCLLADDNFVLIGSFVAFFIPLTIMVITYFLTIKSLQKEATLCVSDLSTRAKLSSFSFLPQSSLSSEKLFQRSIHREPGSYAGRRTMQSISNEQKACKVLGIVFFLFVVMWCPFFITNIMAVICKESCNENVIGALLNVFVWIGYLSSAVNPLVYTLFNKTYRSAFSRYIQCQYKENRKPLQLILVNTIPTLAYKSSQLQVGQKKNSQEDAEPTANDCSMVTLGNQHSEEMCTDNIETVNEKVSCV

HTR2A-A242S-EGFP-CT (humanized 5-hydroxytryptamine 2A receptor), sequence (P35363 1-452 A242S, other chains not shown): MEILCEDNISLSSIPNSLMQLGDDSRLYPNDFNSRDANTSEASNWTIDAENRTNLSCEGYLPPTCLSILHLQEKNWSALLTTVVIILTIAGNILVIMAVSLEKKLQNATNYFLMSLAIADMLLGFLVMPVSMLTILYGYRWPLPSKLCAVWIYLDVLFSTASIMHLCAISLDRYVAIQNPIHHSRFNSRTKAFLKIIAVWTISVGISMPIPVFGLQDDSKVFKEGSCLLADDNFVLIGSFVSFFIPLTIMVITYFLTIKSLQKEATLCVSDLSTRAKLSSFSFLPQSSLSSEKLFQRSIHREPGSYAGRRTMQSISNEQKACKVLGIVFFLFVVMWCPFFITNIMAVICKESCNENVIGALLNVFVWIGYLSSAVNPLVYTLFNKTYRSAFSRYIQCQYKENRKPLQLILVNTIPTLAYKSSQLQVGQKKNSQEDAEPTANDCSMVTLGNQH

One may read the Kd as the equilibrium constant for the complex coming apart. Regarding `O=C(c1ccc(F)cc1)C1CCN(CCn2c(=O)[nH]c3ccccc3c2=O)CC1` [[3H]-ketanserin], the equilibrium dissociation constant (Kd) came out at 2.38 ± 1.48 nM in assay [1] and 1.09 ± 0.324 nM in assay [2].
